The source of these data is patent US11793861B2, “PTH prodrugs” (ASCENDIS PHARMA BONE DISEASES A/S, priority 2016, dated 2023).

Data set [1] has as its system thyroparathyroidectomised (TPTx) rats. The data set is described as follows: Pharmacodynamic actions in thyroparathyroidectomised (TPTx) rats, 28-days daily subcutaneous injections. In kind it is in vivo, SD rats. The procedure:
Quantitative measurements of serum calcium (sCa), urinary calcium and serum phosporous (sP) were performed on a Roche-Hitachi P800 modular biochemistry instrument.
Rats subjected to thyroparathyroidectomy (TPTx) by blunt dissection are unable to produce parathyroid hormone, PTH, the major regulator of calcium homeostasis. […] Additionally, one group of sham operated rats (n=9) representing normophysiological background control were also given vehicle. Serum calcium (sCa) and phosporous (sP) levels in the animals were measured pre- and post-dose on days 1, 6, 12 and 27. Moreover, bone turnover markers (P1NP and CTx) were measured and bone quality assessed by ex vivo pQCT.

For data set [2] the following is noted: cited from earlier work.

As for “PTH(1-84): Natpara®, PTH(1-84), approved by the FDA for hypoparathyroidism; the current standard of care (SEQ ID NO:1)”, the “trabecular BMD compared to both control groups” value in data set [1] (28 days treatment) is reported as “significant increase”. Also, in data set [1] (TPTx rats, daily sc), the “effect on serum phosphorous (sP)” value is on record as “minimal decrease”. In addition, the “effect on serum calcium (sCa)” value in data set [1] (TPTx rats, daily sc, 18 at […], PTH(1-84) at 7.3 nmol/kg/d) was “did not lead to increase in sCa”. The “serum calcium (sCa) at day 12” value in data set [1] (TPTx rats, 18 at […], PTH(1-84) at 7.3 nmol/kg/d, sc) amounted to 8.1 mg/dL. For the same substance, the “trabecular and cortical BMD in vertebrae” value in data set [1] (following 28 days of treatment) is recorded as “anabolic effect”. For the same substance, in data set [2] (currently approved doses), the “PTH Cmax” value was 0.3 ng/mL. Further, the “control of urinary calcium excretion” value in data set [2] (daily injections, FDA review) is given as “failed to provide adequate control”. Besides, the “incidence of hypercalcemia and hypocalcemia compared to placebo” value in data set [2] (in vivo) is “did not improve”.
